The source of these data is US20170298051A1, “ACTIVATOR OF ADIPONECTIN RECEPTOR” (THE UNIVERSITY OF TOKYO, priority 2013, published 2017).

Experiment [1] concerns AdipoR1-AMPK pathway and AdipoR2-PPARα pathway in the liver. In words: Liver: gene expression, TG content, TBARS in mice fed a HF diet. It is filed as in vivo. On the procedure:
Real-time PCR was carried out according to the method described previously^a,b,c. Total RNA was prepared from cells or tissues with Trizol (Invitrogen) according to the manufacturer's instructions. We used a real-time PCR method to quantify the mRNAs^19, with slight modifications.
Skeletal muscle homogenates were extracted, and tissue triglyceride content was determined as described previously^a-c, with some modifications. To investigate whether oxidative stress was increased, we measured lipid peroxidation, a marker of oxidative injury, as represented by plasma thiobarbituric acid reactive substance (TBARS) as described previously^4. Briefly, tissue samples were homogenized in a buffer solution containing 50 mM Tris-HCl (pH 7.4) and 1.15% KCl, and then centrifuged. The supernatant was used for the assay. The levels of lipid peroxidation in tissue homogenate and plasma were measured in terms of the amount of TBARS using the LPO test (Wako Pure Chemical Industries).

For a further experiment, the target named is T1, AdipoR1 (Mus musculus, UniProt Q91VH1).
T1 construct: C2C12 cells (ATCC; CRL-1772, medium; host or cells: differentiated C2C12
T1 sequence (Q91VH1 1-375): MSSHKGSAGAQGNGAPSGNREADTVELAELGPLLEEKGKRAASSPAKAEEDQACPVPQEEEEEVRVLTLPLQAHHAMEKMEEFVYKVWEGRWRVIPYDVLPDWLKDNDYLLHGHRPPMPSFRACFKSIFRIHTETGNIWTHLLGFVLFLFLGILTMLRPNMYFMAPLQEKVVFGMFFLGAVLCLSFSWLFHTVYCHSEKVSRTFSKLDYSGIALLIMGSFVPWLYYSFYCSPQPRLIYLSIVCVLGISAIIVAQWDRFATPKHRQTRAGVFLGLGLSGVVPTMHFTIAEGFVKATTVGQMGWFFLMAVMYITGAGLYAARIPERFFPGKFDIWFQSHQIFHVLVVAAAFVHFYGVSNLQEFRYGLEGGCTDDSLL
In words: Measurement of AMPK phosphorylation ability (Assay 1), differentiated C2C12 cells, Western blotting. Conditions: 10 μM, 10 minutes. The experiment is classed as cell-based. The gist of the method:
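Differentiated mouse C2C12 myotubes (2.5% horse serum) starved and then treated with compound at 10 μM for 10 min. Phospho-AMPKα (Thr172) and total AMPKα measured by Western blot with ECL, band densitometry.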
A general note: Immunoblotting shows a protein as a band on a membrane.

Experiment [2] concerns HF diet-induced obese mice. The experiment in a line: Oral glucose tolerance test and insulin tolerance in HF diet-induced obese mice. Particulars: WT mice on HF diet, oral 50 mg/kg, 10 days. The experiment is classed as in vivo. On the procedure: The original Adipor1^+/−/Adipor2^+/− mice (C57BL/6 and 129/Sv mixed background)^a were backcrossed with C57B1/6 mice more than seven times. All experiments in this study were conducted on male littermates.
Mice were 6-10 week of age at the time of the experiment. They were housed in cages and maintained on a 12 hr light-dark cycle.
Plasma glucose levels were determined by using a glucose B-test (Wako Pure Chemical Industries). Plasma insulin was measured with an insulin immunoassay (Shibayagi). Plasma NEFAs (Wako Pure Chemical Industries) were assayed by enzymatic methods.
The oral glucose tolerance test (OGTT) and insulin tolerance test (ITT) were conducted as previously described^a,b with slight modifications. The areas of the glucose and insulin curves were calculated by multiplying the cumulative mean height of the glucose values (1 mg/ml=1 cm) and insulin values (1 ng/ml=1 cm), respectively, by time (60 min=1 cm)^c,a. The insulin resistance index was calculated from the product of the areas of glucose and insulin×10^−2 in the glucose tolerance test. The results are expressed as the percentage of the value respect to control littermates.

For the next experiment, the system named is rhodopsin receptor. In words: Surface plasmon resonance, rhodopsin receptor control. It is filed as binding. Particulars: SPR. (SPR reads the build-up and loss of mass on a sensor chip optically.)
Where [3] appears, read: Adipor1/r2 double-knockout mice fed with a HF diet.

`O=C(COc1ccc(C(=O)c2ccccc2)cc1)NC1CCN(Cc2ccccc2)CC1` [Compound 73, 2-(4-benzoyl-phenoxy)-N-(1-benzylpiperidin-4-yl)acetamide]: in experiment [1] (setting [3]), the “effect on TG content and TBARS in the liver” value is “such effect was not observed”; the “expression level of genes encoding pro-inflammatory cytokines in the liver” value is reported as “such effect was not observed”; the “expressions of Ppargc1a and G6pc in the liver” value is on record as “such effect was not observed”. Also, the “expression levels of Pparα and its target genes (Acox1, Ucp2, Cat) in the liver” value in experiment [1] (WT mice fed a HF diet) is recorded as “increased the expression levels”. In addition, in experiment [1] (WT mice fed with a HF diet), the “TG content in the liver” value was “significantly reduced TG content”; the “expression level of genes encoding pro-inflammatory cytokines (Tnf, Ccl2) in the liver” value is “reduced the expression level”; the “expressions of Ppargc1a and G6pc in the liver” value is recorded as “significantly decreased the expressions”; the “oxidative stress, as measured by TBARS, in the liver” value was “significantly reduced”. On AdipoR1, the “pAMPK/AMPK (%)” value is given as 84.33%. Further, in experiment [2], the “fasting plasma glucose and insulin levels, glucose and insulin responses during OGTT” value is listed as “significant decrease”; the insulin sensitivity entry is “improved insulin sensitivity”. In addition, the “reaction with rhodopsin receptor (control)” value in the experiment on rhodopsin receptor is “does not react a rhodopsin receptor at all”.
